System: allergic volunteers with known type-1-sensitizations
Experiment: Prick test with patient-specific allergen after topical pre-treatment, wheal size
Type: in vivo, human
Conditions: n = 5; for allergen-prick wheal ± standard error: miltefosine pre-treatment (6% solution, topical, 2 h before); for allergen-prick % inhibition ± standard error (by miltefosine pre-treatment): versus placebo pre-treatment
Source text: To provide proof of concept that miltefosine inhibits IgE-dependent human mast cell stimulation and mediator release in vivo we performed a study on selected allergic volunteers with known type-1-sensitizations (n=5). The volunteers were subjected to standard prick testing with their known allergens on both forearms as well as with positive (histamine) and negative (saline) controls (Table 3). Using a double blind, placebo controlled approach, one forearm of each test person was pre-treated with topical miltefosine (6% solution). The contralateral side was subjected to a pre-treatment with a placebo solution (saline), both two hours prior to the prick test. Subsequently, developing skin symptoms were measured with high-quality standardized methods, i.e. macroscopic standard prick test-evaluation (Heinzerling et al 2005), volumetric imaging, thermography, and digital time lapse photography (DTLP). Volunteers known to suffer from permanent severe diseases, especially those affecting the immune system, were excluded from the study. None of the volunteers took any oral […] or leukotriene antagonists within 7 days prior to the beginning of the study. Moreover, none of them took any oral or depot corticosteroids or other immunosuppressive drugs within 21 days before the testing. The course of developing lesions (wheal and erythema size) was assessed macroscopically by measuring vertical and perpendicular diameter of wheal and erythema size. Subsequently, the sum of both diameters was divided by two. In addition, volumetric and thermographic imaging as well as DTLP was performed before and at defined time points after prick testing. To assess the course of developing prick test lesions, wheal size was assessed macroscopically by measuring the diameters at distinct time points after prick testing.

SMILES: CCCCCCCCCCCCCCCCOP(=O)([O-])OCC[N+](C)(C)C [Compound 3, 1-hexadecylphosphoryl-choline]
- allergen-prick wheal ± standard error (15 minutes after prick testing): 4.20 ± 1.36 mm
- allergen-prick wheal ± standard error (20 minutes after prick testing): 4.40 ± 1.34 mm
- allergen-prick wheal ± standard error (30 minutes after prick testing): 2.90 ± 1.36 mm
- allergen-prick % inhibition ± standard error (by miltefosine pre-treatment) (15 minutes after prick testing): 35.0 ± 16.6%
- allergen-prick % inhibition ± standard error (by miltefosine pre-treatment) (20 minutes after prick testing): 34.8 ± 18.0%
- allergen-prick % inhibition ± standard error (by miltefosine pre-treatment) (30 minutes after prick testing): 51.8 ± 22.8%

From US8394785B2, “Methods for the treatment and amelioration of urticaria” (Jado Technologies GmbH, priority 2005, dated 2013)
